Assays:
Normal Rats = test: Hemoglobin increase in normal rats, oral tiw vs qw for 4 weeks; format: in vivo, SD rats; parameters: Hemoglobin D0 / Hemoglobin D14: unit not given here; details: for Hemoglobin D0 / Hemoglobin D7 / Hemoglobin D14 / Hemoglobin D21 / Hemoglobin D28: oral; for Hemoglobin D0: day 0; for Hemoglobin D7: day 7; for Hemoglobin D14: day 14; for Hemoglobin D21: day 21; for Hemoglobin D28: day 28
Description: A total of 70 male SD rats, approximately 7 weeks old, were acclimated to the experimental environment for 10 days before the start of the experiment. Throughout the experiment, animals were housed in cages (5 rats per cage) in a conventional animal room with 24-hour continuous central air conditioning, temperature set at 24° C., and a 12-hour light/dark cycle. All rats had free access to food (dry pelleted food) and purified drinking water. The animals were randomly divided into 8 groups: the vehicle tiw group and vehicle qw group each contained 5 rats; Comp-1 3 mpk tiw, 6 mpk tiw, 10 mpk tiw, 9 mpk qw, 18 mpk qw, and 30 mpk qw, each contained 10 rats (mpk=mg/kg). The vehicle was 1 M aqueous meglumine solution. Each rat received oral gavage of the vehicle or the corresponding weight of Comp-1 vehicle solution according to its body weight and group assignment (tiw, qw) for a total of 4 weeks. Blood samples were collected from each rat on days 0, 7, 14, 21, and 28 to measure hemoglobin values (HGB, Hb). After tail snip blood collection, hemoglobin values were measured and read using a hemoglobin detector (HemoCue Hb 201+, produced by Radiometer). Quantitative data results were analyzed statistically using one-way analysis of variance (ANOVA) between groups, followed by Dunnett's multiple comparison method. Two-tailed analysis was used for statistics, and the statistical significance level was set at P<0.05.

[1] = tested on: patients with chronic kidney disease anemia; test: Phase 2 clinical trial in patients with chronic kidney disease anemia (hemoglobin, adverse events); format: in vivo, human; details: for mean rate of hemoglobin increase: end of dose-fixing period (5 weeks); for mean hemoglobin level: Weeks 6-14 (entire titration period); for cumulative percentage of patients achieving target hemoglobin range 10.0-11.0 g/dL and increase of ≥1.0 g/dL from baseline: entire 13-week treatment period; for TEAE, % of patients / TEAE, NE (total number of adverse events) / TEAE, n (number of patients experiencing adverse events) / Treatment-related TEAE, % of patients / Treatment-related TEAE, NE (total number of adverse events) / Treatment-related TEAE, n (number of patients experiencing adverse events): titration period
Description: A Phase 2, randomized, double-blind, placebo-controlled clinical study of Comp-1 in patients with chronic kidney disease anemia included a total treatment period of 13 weeks, divided into an initial 5-week dose-fixing period and a subsequent 8-week dose adjustment period (also referred to as the titration period). A total of 113 patients with renal anemia were initially randomized into the dose-fixing period. During the dose-fixing period, patients with renal anemia received Comp-1 8 mg, 12 mg, or 16 mg three times weekly (TIW), or a matching placebo. At the Week 6 study visit, a total of 44 eligible patients underwent a second randomization into the dose adjustment period (titration period). […] The starting dose in this phase was the same as the dose during the dose-fixing period and could be adjusted based on weekly hemoglobin values to maintain hemoglobin within the target range of 10.0-11.0 g/dL, inclusive. To maintain blinding, patients in the placebo group underwent pseudo-randomization and continued to receive matching placebo. During the study, patients were visited weekly to measure the primary efficacy indicator, i.e. hemoglobin level, and safety comparisons were made for patients entering the titration period according to dosing frequency (three times weekly (TIW) dosing vs. once weekly (QW) dosing).
The primary efficacy objective of the study was to compare the mean rate of hemoglobin increase (g/dL/week) at the end of the dose-fixing period (i.e., after 5 weeks of dosing) between the three Comp-1 dose groups and the placebo group. […] In the analysis of hemoglobin during the adjustment period (titration period), at Week 14 (i.e., at the end of the titration period or after 13 weeks of dosing), the mean levels of hemoglobin in the pooled Comp-1 TIW group and QW group were 10.74 g/dL and 10.09 g/dL, respectively, both maintained within the study target range of 10.0-11.0 g/dL inclusive, while the mean level of hemoglobin in the placebo group was 9.57 g/dL. During the later part of the adjustment period (titration period), i.e., Weeks 10-14, the mean levels of hemoglobin were >10.0 g/dL in all dose frequency groups including the placebo group: 10.73 g/dL and 10.77 g/dL in the pooled Comp-1 TIW and QW groups, respectively, and 10.26 g/dL in the placebo group. The change in hemoglobin level from baseline was 1.60 g/dL and 1.63 g/dL in the pooled Comp-1 TIW and QW groups, respectively, and 0.48 g/dL in the placebo group. […] In the analysis of hemoglobin throughout the entire adjustment period (titration period), i.e., Weeks 6-14, the mean hemoglobin levels in the pooled Comp-1 TIW and QW groups were 10.84 g/dL and 10.91 g/dL, respectively, compared to 10.23 g/dL in the placebo group. […] Throughout the entire 13-week treatment period, the cumulative percentage of patients achieving the target hemoglobin range of 10.0-11.0 g/dL inclusive and an increase of ≥1.0 g/dL from baseline was similar between the pooled Comp-1 TIW and QW groups: 100% and 90%, respectively, compared to 40% in the placebo group. Table 3 below provides a safety comparison for patients entering the titration period according to dosing frequency.
TEAE: treatment emergent adverse event; Treatment-related TEAE: treatment emergent adverse event considered related to treatment; N: number of patients; NE: total number of adverse events occurring; n: number of patients experiencing adverse events.

Question: Which results are given for O=C(O)CNC(=O)C1=C(O)C2(CCCC2)n2c(ccc2-c2ccccc2)C1=O [Comp-1, (6′-hydroxy-8′-oxo-3′-phenyl-8′H-spiro[cyclopentane-1,5′-indolizine]-7′-carbonyl)glycine]?
Answer: Hemoglobin D0 (Normal Rats; 3 mg/kg, tiw): 16.42 ± 0.74; Hemoglobin D7 (Normal Rats; 3 mg/kg, tiw): 18.32 ± 0.70; Hemoglobin D14 (Normal Rats; 3 mg/kg, tiw): 19.06 ± 0.81; Hemoglobin D21 (Normal Rats; 3 mg/kg, tiw): 18.09 ± 0.57; Hemoglobin D28 (Normal Rats; 3 mg/kg, tiw): 18.97 ± 0.56; Hemoglobin D0 (Normal Rats; 6 mg/kg, tiw): 17.4 ± 1.07; Hemoglobin D7 (Normal Rats; 6 mg/kg, tiw): 18.76 ± 0.76; Hemoglobin D14 (Normal Rats; 6 mg/kg, tiw): 20.15 ± 0.58; Hemoglobin D21 (Normal Rats; 6 mg/kg, tiw): 19.49 ± 0.82; Hemoglobin D28 (Normal Rats; 6 mg/kg, tiw): 21.26 ± 1.08; Hemoglobin D0 (Normal Rats; 9 mg/kg, qw): 16.96 ± 0.82; Hemoglobin D7 (Normal Rats; 9 mg/kg, qw): 17.57 ± 1.07; Hemoglobin D14 (Normal Rats; 9 mg/kg, qw): 17.77 ± 2.01; Hemoglobin D21 (Normal Rats; 9 mg/kg, qw): 17.73 ± 1.15; Hemoglobin D28 (Normal Rats; 9 mg/kg, qw): 19.09 ± 1.44; Hemoglobin D0 (Normal Rats; 10 mg/kg, tiw): 17.74 ± 1.06; Hemoglobin D7 (Normal Rats; 10 mg/kg, tiw): 19.21 ± 0.71; Hemoglobin D14 (Normal Rats; 10 mg/kg, tiw): 21.83 ± 1.18; Hemoglobin D21 (Normal Rats; 10 mg/kg, tiw): 22.12 ± 1.40; Hemoglobin D28 (Normal Rats; 10 mg/kg, tiw): 23.69 ± 1.31; Hemoglobin D0 (Normal Rats; 18 mg/kg, qw): 17.2 ± 1.00; Hemoglobin D7 (Normal Rats; 18 mg/kg, qw): 17.95 ± 0.88; Hemoglobin D14 (Normal Rats; 18 mg/kg, qw): 18.57 ± 0.76; Hemoglobin D21 (Normal Rats; 18 mg/kg, qw, in g/dL): 18.72 ± 0.92; Hemoglobin D28 (Normal Rats; 18 mg/kg, qw): 18.99 ± 1.23; Hemoglobin D0 (Normal Rats; 30 mg/kg, qw): 17.13 ± 1.17; Hemoglobin D7 (Normal Rats; 30 mg/kg, qw, in g/dL): 19.33 ± 0.56; Hemoglobin D14 (Normal Rats; 30 mg/kg, qw): 19.44 ± 1.07; Hemoglobin D21 (Normal Rats; 30 mg/kg, qw, in g/dL): 20.04 ± 0.93; Hemoglobin D28 (Normal Rats; 30 mg/kg, qw, in g/dL): 20.62 ± 0.76; hemoglobin levels compared with vehicle once weekly (qw) (Normal Rats; day 28, the three once weekly (qw) groups): statistically significantly increased; mean rate of hemoglobin increase ([1]; 8 mg TIW): 0.2839 g/dL/week; mean rate of hemoglobin increase ([1]; 12 mg TIW): 0.3893 g/dL/week; mean rate of hemoglobin increase ([1]; 16 mg TIW): 0.4817 g/dL/week; mean level of hemoglobin ([1]; Week 14, pooled QW group): 10.09 g/dL; mean level of hemoglobin ([1]; Week 14, pooled TIW group): 10.74 g/dL; mean hemoglobin level ([1]; pooled QW group): 10.91 g/dL; mean hemoglobin level ([1]; pooled TIW group): 10.84 g/dL; change in hemoglobin from baseline ([1]; Weeks 6-14, pooled QW group): 1.78 g/dL; change in hemoglobin from baseline ([1]; Weeks 6-14, pooled TIW group): 1.71 g/dL; change in hemoglobin level from baseline ([1]; Weeks 10-14, pooled QW group): 1.63 g/dL; mean level of hemoglobin ([1]; Weeks 10-14, pooled QW group): 10.77 g/dL; change in hemoglobin level from baseline ([1]; Weeks 10-14, pooled TIW group): 1.60 g/dL; mean level of hemoglobin ([1]; Weeks 10-14, pooled TIW group): 10.73 g/dL; cumulative percentage of patients achieving target hemoglobin range 10.0-11.0 g/dL and increase of ≥1.0 g/dL from baseline ([1]; pooled QW group): 90%; cumulative percentage of patients achieving target hemoglobin range 10.0-11.0 g/dL and increase of ≥1.0 g/dL from baseline ([1]; pooled TIW group): 100%; TEAE, % of patients ([1]; Pooled QW, N = 20): 70.0%; TEAE, NE (total number of adverse events) ([1]; Pooled QW, N = 20): 18; TEAE, n (number of patients experiencing adverse events) ([1]; Pooled QW, N = 20): 14; Treatment-related TEAE, % of patients ([1]; Pooled QW, N = 20): 5.0%; Treatment-related TEAE, NE (total number of adverse events) ([1]; Pooled QW, N = 20): 1; Treatment-related TEAE, n (number of patients experiencing adverse events) ([1]; Pooled QW, N = 20): 1; TEAE, % of patients ([1]; Pooled TIW, N = 19): 73.7%; TEAE, NE (total number of adverse events) ([1]; Pooled TIW, N = 19): 39; TEAE, n (number of patients experiencing adverse events) ([1]; Pooled TIW, N = 19): 14; Treatment-related TEAE, % of patients ([1]; Pooled TIW, N = 19): 10.5%; Treatment-related TEAE, NE (total number of adverse events) ([1]; Pooled TIW, N = 19): 2; Treatment-related TEAE, n (number of patients experiencing adverse events) ([1]; Pooled TIW, N = 19): 2

Reference: patent US20260199305A1, “LONG-ACTING ORAL PHARMACEUTICAL COMPRISING HYPOXIA-INDUCIBLE FACTOR PROLYL HYDROLASE INHIBITOR AND USE THEREOF” (Kind Pharmaceutical, priority 2023, published 2026)
